Molecular target: T1, P. falciparum diadenosine tetraphosphate (Ap4A) hydrolase (PfAp4AH) (Plasmodium falciparum, UniProt C0H4F3)
T1 construct: gene PF3D7_0520600; Full length PfAp4AH, recombinant from E. coli, His-tag removed
T1 sequence (C0H4F3 1-152): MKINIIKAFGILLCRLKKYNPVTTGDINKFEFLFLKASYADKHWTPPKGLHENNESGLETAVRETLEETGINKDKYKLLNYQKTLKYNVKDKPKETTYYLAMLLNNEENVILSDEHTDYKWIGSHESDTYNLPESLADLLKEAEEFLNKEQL
Assay: ITC at […] °C (n = […]); also enzyme inhibition IC50 […] and thermal shift (negative ΔTm)
Format: binding

Question: For Cc1ccc(C(=O)Nc2ccc(S(=O)(=O)O)c3cc(S(=O)(=O)O)cc(S(=O)(=O)O)c23)cc1NC(=O)c1cccc(NC(=O)Nc2cccc(C(=O)Nc3cc(C(=O)Nc4ccc(S(=O)(=O)O)c5cc(S(=O)(=O)O)cc(S(=O)(=O)O)c45)ccc3C)c2)c1 [suramin], which Kd is on record?
Answer: 18.1 ± 1.1 µM

— publication PMC4734340, “Structural and functional attributes of malaria parasite diadenosine tetraphosphate hydrolase” (Scientific Reports, 2016)
